Biological target: T1, human WT SLC26A9 (Homo sapiens, UniProt Q7LBE3)
T1 construct: expressed in transfected cells
T1 sequence (Q7LBE3 1-791): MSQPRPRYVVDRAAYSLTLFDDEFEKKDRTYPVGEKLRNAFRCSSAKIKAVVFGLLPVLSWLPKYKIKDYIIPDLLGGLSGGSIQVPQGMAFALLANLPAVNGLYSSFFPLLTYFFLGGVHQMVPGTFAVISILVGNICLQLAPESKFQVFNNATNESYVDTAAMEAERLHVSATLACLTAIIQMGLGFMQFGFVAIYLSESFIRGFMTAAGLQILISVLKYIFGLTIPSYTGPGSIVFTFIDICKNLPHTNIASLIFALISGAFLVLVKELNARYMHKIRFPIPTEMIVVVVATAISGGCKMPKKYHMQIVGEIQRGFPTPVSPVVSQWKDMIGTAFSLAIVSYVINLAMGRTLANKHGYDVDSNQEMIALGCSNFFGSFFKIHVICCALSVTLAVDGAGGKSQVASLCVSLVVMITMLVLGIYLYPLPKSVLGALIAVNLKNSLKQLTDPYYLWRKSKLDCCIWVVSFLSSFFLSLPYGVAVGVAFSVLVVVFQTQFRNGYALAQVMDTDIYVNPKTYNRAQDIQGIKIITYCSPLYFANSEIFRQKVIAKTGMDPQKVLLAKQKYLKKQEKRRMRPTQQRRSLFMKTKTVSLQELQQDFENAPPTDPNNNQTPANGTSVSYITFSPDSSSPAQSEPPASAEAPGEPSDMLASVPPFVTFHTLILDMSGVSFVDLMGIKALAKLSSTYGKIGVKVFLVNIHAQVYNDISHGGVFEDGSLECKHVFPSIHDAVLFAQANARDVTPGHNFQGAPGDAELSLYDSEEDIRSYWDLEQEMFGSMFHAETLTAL
Assay: SLC26A9 Cl−/I− exchange activity, YFP fluorescence in LN-215 cells
Type: cell-based
Details: 100 μM, FIG. 3
Description: Chinese hamster ovary (CHO)-K1 cells or LN-215 cells were cultured in DMEM medium containing 10% fetal bovine serum (FBS), 100 units/ml of penicillin and 100 μg/ml streptomycin. CHO-K1 cells or LN-215 cells were stably transfected with pcDNA3.1 encoding the halide sensor YFP-H148Q/I152L/F46L and human wild-type (WT)-SLC26A9. Fisher rat thyroid (FRT) cells stably transfected with YFP-H148Q/I152L/F46L and human wild type (WT)-CFTR or human wild type (WT)-ANO1 were cultured in DMEM/F-12 medium containing 10% fetal bovine serum (FBS), 100 units/ml of penicillin, and 100 μg/ml of streptomycin.
LN-215 cells expressing human WT SLC26A9 and YFP-F46L/H148Q/I152L, and FRT cells expressing human WT CFTR or ANO1 and YFP-F46L/H148Q/I152L were plated in 96-well microplates at a density of 2×10^4 cells per well, and cultured for 48 hours. […] After culturing at 37° C. for 10 minutes, the 96-well plate was located on the FLUOstar Omega Microplate Reader (BMG Labtech, Ortenberg, Germany) for a fluorescence assay. For assay of the activity of […], fluorescence was recorded continuously (400 ms per point) for 1 second (baseline), whereby each well was assayed individually for SLC26A9-mediated I-influx. Then, 50 μL of NaI-substituted HEPES buffered solution (replacing NaCl with NaI) was added using a liquid injector at 1 second, and YFP fluorescence was recorded for 6 seconds. […]

Effect on activity of SLC26A9	Compound
did not inhibit	Cc1ccc2[nH]c(C(=O)O)c(CC(=O)N3CCN(c4c(C)cccc4Cl)CC3)c2c1 [YPI-A4948, 3-(2-(4-(2-Chloro-6-methylphenyl)piperazin-1-yl)-2-oxoethyl)-5-methyl-1H-indole-2-carboxylic acid]
did not inhibit	Cc1ccc(C)c(N2CCN(C(=O)Cc3c(C(=O)O)[nH]c4ccc(Cl)cc34)CC2)c1 [YPI-H05, 5-chloro-3-(2-(4-(2,5-dimethylphenyl)piperazin-1-yl-)-2-oxoethyl)-1H-indole-2-carboxylic acid]

From patent publication US20240287042A1, “NOVEL COMPOUND HAVING INHIBITORY ACTIVITY AGAINST PENDRIN, AND PHARMACEUTICAL USES THEREOF” (UIF (University Industry Foundation), Yonsei University, priority 2021, published 2024)
